Source: ChEMBL document CHEMBL4813985, “Lead optimization generates selenium-containing miconazole CYP51 inhibitors with improved pharmacological profile for the treatment of fungal infections” (Eur J Med Chem, 2021)
Values after ≈ are worked out from the molar mass of the structure shown.

How the values were obtained:
Assay type in all cases: functional
[1] = system: [Candida] zeylanoides; test: Antifungal activity against Candida zeylanoides CMGCC2.3739 measured after 24 hrs by broth microdilution assay; conditions: Dujonia zeylanoides
[2] = system: Candida albicans; test: Antifungal activity against fluconazole-resistant Candida albicans 904 assessed as inhibition of microbial growth after 24 hrs by broth microdilution method
[3] = system: Aspergillus fumigatus; test: Antifungal activity against Aspergillus fumigatus CMGCC3.7795 measured after 72 hrs by broth microdilution assay
[4] = system: Cryptococcus neoformans; test: Antifungal activity against Cryptococcus neoformans CMGCC2.3161 measured after 72 hrs by broth microdilution assay
[5] = system: Candida albicans; test: Antifungal activity against Candida albicans ATCC SC5314 measured after 24 hrs by broth microdilution assay
[6] = system: Candida albicans; test: Antifungal activity against Candida albicans CPCC400616 measured after 24 hrs by broth microdilution assay
[7] = system: Candida albicans; test: Potency index, ratio of fluconazole MIC to test compound MIC for Candida albicans CPCC400616 measured after 24 hrs by broth microdilution assay
[8] = system: Candida albicans; test: Antifungal activity against fluconazole-resistant Candida albicans CaR assessed as inhibition of microbial growth after 24 hrs by broth microdilution method
[9] = system: Candida parapsilosis; test: Antifungal activity against Candida parapsilosis ATCC 22019 measured after 24 hrs by broth microdilution assay; conditions: Lodderomyces parapsilosis
[10] = system: Candida albicans; test: Antifungal activity against fluconazole-resistant Candida albicans 901 assessed as inhibition of microbial growth after 24 hrs by broth microdilution method
[11] = system: Candida albicans; test: Antifungal activity against fluconazole-resistant Candida albicans 632 assessed as inhibition of microbial growth after 24 hrs by broth microdilution method
[12] = system: Pichia kudriavzevii; test: Antifungal activity against Candida krusei AS2.1045 measured after 24 hrs by broth microdilution assay
[13] = system: Nakaseomyces glabratus; test: Antifungal activity against Candida glabrata measured after 24 hrs by broth microdilution assay
[14] = system: Candida albicans; test: Antifungal activity against fluconazole-resistant Candida albicans 17# assessed as inhibition of microbial growth after 24 hrs by broth microdilution method

Structure (SMILES)	MIC [1]	MIC [2]	MIC [3]	MIC [4]	MIC [5]	MIC [6]	Ratio [7]	MIC [8]	MIC [9]	MIC [10]	MIC [11]	MIC [12]	MIC [13]	MIC [14]
Cc1ccc(C)c([Se]C(Cn2ccnc2)c2ccc(F)cc2F)c1 (configuration not stated)	0.5 µg/mL (≈ 1.28 µM)	8 µg/mL	8 µg/mL (≈ 20.4 µM)	0.25 µg/mL (≈ 0.639 µM)	0.06 µg/mL (≈ 0.153 µM)	0.25 µg/mL (≈ 0.639 µM)	8	8 µg/mL	0.13 µg/mL (≈ 0.332 µM)	4 µg/mL	2 µg/mL	0.13 µg/mL (≈ 0.332 µM)	0.5 µg/mL (≈ 1.28 µM)	4 µg/mL
CCc1ccc([Se]C(Cn2ccnc2)c2ccc(Cl)cc2Cl)cc1 (configuration not stated)	0.5 µg/mL (≈ 1.18 µM)	15 µg/mL	4 µg/mL (≈ 9.43 µM)	0.5 µg/mL (≈ 1.18 µM)	0.03 µg/mL (≈ 0.0707 µM)	0.5 µg/mL (≈ 1.18 µM)	8	8 µg/mL	1 µg/mL (≈ 2.36 µM)	4 µg/mL	4 µg/mL	0.06 µg/mL (≈ 0.141 µM)	0.13 µg/mL (≈ 0.306 µM)	8 µg/mL
COc1ccc([Se]C(Cn2ccnc2)c2ccc(F)cc2F)cc1 (configuration not stated)	0.25 µg/mL (≈ 0.636 µM)	8 µg/mL	8 µg/mL (≈ 20.3 µM)	0.5 µg/mL (≈ 1.27 µM)	0.03 µg/mL (≈ 0.0763 µM)	1 µg/mL (≈ 2.54 µM)	8	2 µg/mL	0.25 µg/mL (≈ 0.636 µM)	2 µg/mL	16 µg/mL	0.5 µg/mL (≈ 1.27 µM)	0.5 µg/mL (≈ 1.27 µM)	16 µg/mL
Cc1ccccc1[Se]C(Cn1ccnc1)c1ccc(Cl)cc1Cl (configuration not stated)	0.5 µg/mL (≈ 1.22 µM)	0.5 µg/mL	16 µg/mL (≈ 39 µM)	0.5 µg/mL (≈ 1.22 µM)	0.03 µg/mL (≈ 0.0731 µM)	0.13 µg/mL (≈ 0.317 µM)	8	4 µg/mL	0.5 µg/mL (≈ 1.22 µM)	0.5 µg/mL	0.5 µg/mL	0.13 µg/mL (≈ 0.317 µM)	0.25 µg/mL (≈ 0.609 µM)	2 µg/mL
Clc1ccc(C(Cn2ccnc2)[Se]c2ccccc2)c(Cl)c1 (configuration not stated)	0.25 µg/mL (≈ 0.631 µM)	2 µg/mL	8 µg/mL (≈ 20.2 µM)	0.13 µg/mL (≈ 0.328 µM)	0.13 µg/mL (≈ 0.328 µM)	0.25 µg/mL (≈ 0.631 µM)	8	1 µg/mL	0.25 µg/mL (≈ 0.631 µM)	2 µg/mL	1 µg/mL	0.13 µg/mL (≈ 0.328 µM)	1 µg/mL (≈ 2.52 µM)	1 µg/mL
COc1cccc([Se]C(Cn2ccnc2)c2ccc(F)cc2F)c1 (configuration not stated)	1 µg/mL (≈ 2.54 µM)	8 µg/mL	4 µg/mL (≈ 10.2 µM)	0.5 µg/mL (≈ 1.27 µM)	0.13 µg/mL (≈ 0.331 µM)	0.5 µg/mL (≈ 1.27 µM)	8	2 µg/mL	0.25 µg/mL (≈ 0.636 µM)	4 µg/mL	1 µg/mL	0.13 µg/mL (≈ 0.331 µM)	0.5 µg/mL (≈ 1.27 µM)	4 µg/mL
Fc1cccc([Se]C(Cn2ccnc2)c2ccc(F)cc2F)c1 (configuration not stated)	0.5 µg/mL (≈ 1.31 µM)	2 µg/mL	8 µg/mL (≈ 21 µM)	0.5 µg/mL (≈ 1.31 µM)	0.03 µg/mL (≈ 0.0787 µM)	0.5 µg/mL (≈ 1.31 µM)	8	4 µg/mL	0.25 µg/mL (≈ 0.656 µM)	2 µg/mL	1 µg/mL	0.13 µg/mL (≈ 0.341 µM)	1 µg/mL (≈ 2.62 µM)	4 µg/mL
Cc1cccc([Se]C(Cn2ccnc2)c2ccc(Cl)cc2Cl)c1 (configuration not stated)	0.25 µg/mL (≈ 0.609 µM)	1 µg/mL	4 µg/mL (≈ 9.75 µM)	0.25 µg/mL (≈ 0.609 µM)	0.03 µg/mL (≈ 0.0731 µM)	0.25 µg/mL (≈ 0.609 µM)	8	1 µg/mL	0.25 µg/mL (≈ 0.609 µM)	1 µg/mL	1 µg/mL	0.06 µg/mL (≈ 0.146 µM)	1 µg/mL (≈ 2.44 µM)	1 µg/mL
